Results as given in patent publication EP0548441A1, “Endothelin antagonists” (Japat Ltd, priority 1991, dated 1993).
Where a SMILES comes first, the peptide text is derived from it.

Columns and labels:
guinea pig trachea = experiment: Inhibition of the contraction of guinea pig trachea; type: cell-based; settings: guinea pig tracheal rings
Procedure: The contraction of the guinea pig trachea was measured according to Br. J. Pharmacol. 98, 483, l989, by the following procedure.
Male guinea pigs weighing 350 - 500 g were stunned and bled. The trachea was rapidly removed and placed in an oxygenated (95% O₂ , 5% CO₂) Krebs solution. After removal of the adherent fat and connective tissues, the trachea was cut into 2 mm wide rings. The two rings were tied together, end to end, placed in a 30 ml organ bath and connected to an isometric force-transducer under an initial tension of 1.0 g.

ETA receptor = biological target: T1, ETA receptor (Sus scrofa, UniProt Q29010)
T1 sequence (Q29010 21-427): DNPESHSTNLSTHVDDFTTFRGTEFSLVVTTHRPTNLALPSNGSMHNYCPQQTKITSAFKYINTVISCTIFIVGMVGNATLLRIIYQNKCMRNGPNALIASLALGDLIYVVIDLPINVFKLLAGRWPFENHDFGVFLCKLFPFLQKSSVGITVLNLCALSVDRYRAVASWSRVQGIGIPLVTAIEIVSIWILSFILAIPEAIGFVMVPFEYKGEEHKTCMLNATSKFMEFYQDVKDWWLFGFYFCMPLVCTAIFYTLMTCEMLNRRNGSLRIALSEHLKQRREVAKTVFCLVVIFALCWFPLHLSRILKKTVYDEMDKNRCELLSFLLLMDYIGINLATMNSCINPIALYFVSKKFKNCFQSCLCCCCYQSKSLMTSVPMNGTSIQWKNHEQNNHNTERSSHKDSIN
Procedure: Porcine lung was homogenized with a Kinematica Polytron homogenizer (Lucern, Switzerland) three times at top speed for each 30 sec in 9 volumes of ice-cold 0.25 M sucrose solution containing 20 mM Tris-HCl (pH 7.4), 0.2 mM phenylmethylsulfonyl fluoride, 1 µM leupeptin, 1 µM pepstatin, 0.1 mM EDTA, and 0.5 mM EGTA. After centrifugation of the homogenate at 1,000 x g for 10 min at 4°C, the supernatant was centrifuged again at 20,000 x g for 20 min. The resulting pellet was washed three times as described above and used as a membrane source. The membrane was stocked in aliquots at -80°C until use.
ET-3 in the absence and presence of various amounts of nonlabeled ligands in a total volume of 1 ml of 20 mM HEPES (pH 7), 145 mM NaCl, 5 mM KCl, 3 mM MgCl₂ , 1 mM EGTA, 1 mg/ml bovine serum albumin, and 0.2 mg/ml bacitracin. […] The radioactivity in membrane pellet was measured in a gamma counter. Nonspecific binding was defined as membrane-associated radioactivity in the presence of saturating concentrations of ET(l00 nM). […] Total binding was always less than l5% of the total radioactivity added.
The specific binding site for ETs in the plasma membrane of porcine lung was detected. The binding to the ETA receptor was determined with [¹²⁵I]ET-1 in the presence of 1 nM unlabeled ET-3 and the binding to the ETB receptor was determined with [¹²⁵I]ET-3 alone. […]

Ki (ETA receptor) | SMILES | contraction of the trachea (guinea pig trachea; organ bath, high KCl (60 mM) as reference standard) | inhibition of ET-3-induced contraction of the trachea (guinea pig trachea; 100 nM, added 5 min prior to the addition of ET-3)
 | CC[C@H](C)[C@H](NC(=O)[C@H](CC(=O)O)NC(=O)[C@H](CC(C)C)NC(=O)[C@H](Cc1c[nH]cn1)NC(=O)[C@@H]1CSSC[C@H](N)C(=O)N[C@@H]([C@@H](C)O)C(=O)N[C@H]2CSSC[C@H](NC(=O)[C@H](CCC(=O)O)NC(=O)[C@H](CCCCN)NC(=O)[C@H](CC(=O)O)NC(=O)[C@H](CCCCN)NC(=O)[C@H](Cc3ccc(O)cc3)NC(=O)[C@H]([C@@H](C)O)NC(=O)[C@H](Cc3ccccc3)NC2=O)C(=O)N[C@@H](C(C)C)C(=O)N[C@@H](Cc2ccc(O)cc2)C(=O)N[C@@H](Cc2ccc(O)cc2)C(=O)N1)C(=O)N[C@H](C(=O)N[C@@H](Cc1c[nH]c2ccccc12)C(=O)O)[C@@H](C)CC [ET-3, endothelin-3, reference compound] | caused a contraction of the trachea in a concentration dependent manner | 
450 nM | CC[C@H](C)[C@H](NC(=O)[C@H](CC(=O)O)NC(=O)[C@H](CC(C)C)NC(=O)[C@H](Cc1c[nH]cn1)NC(=O)[C@H](C)NC(=O)[C@H](Cc1ccccc1)NC(=O)[C@H](Cc1ccc(O)cc1)NC(=O)[C@@H](NC(=O)[C@H](C)NC(=O)[C@H](CCC(=O)O)NC(=O)[C@H](CCCCN)NC(=O)[C@H](CC(=O)O)NC(C)=O)C(C)C)C(=O)N[C@H](C(=O)N[C@@H](Cc1c[nH]c2ccccc12)C(=O)O)[C@@H](C)CC [Compound (II)] (Ac-DKEAVYFAHLDIIW-OH) |  | significantly inhibited
